Values after ≈ are worked out from the molar mass of the structure shown.
Legend:
[1] = Dissolution behaviour, USP apparatus II (paddle); type: physicochemical; conditions: 100 rpm; for Mean release: N=2, 500 ml 0.1 N HCl
Method: In order to check the dissolution behaviour of the final formulations, dissolution studies of the cyclodextrin and the Eudragit formulation against pure taxifolin were carried out.
Method: In order to determine the dissolution behaviour, the usual procedure according to pharmacopoeia was chosen.
USP apparatus II (paddle); 100 rpm; medium: 500 ml 0.1 N HCl; 2 vessels per sample (N=2); 7 sampling points: 0 min, 5 min, 10 min, 15 min, 20 min, 30 min, 60 min; weighed in: formulation as a powder corresponding to 100 mg taxifolin; detection by HPLC
The following formulations were tested: • taxifolin (Ametis Lavitol®, 98.8% purity) • Eudragit® E CSE 2:1 (solid dispersion formulation) • FD β (cyclodextrin formulation)

[2] = in vivo; cited from earlier work
[3] = Saturation solubility in dist. water (HPLC), γ-CD complexes; type: physicochemical; conditions: thermodynamic from solid, saturated solution shaken 60 minutes, HPLC DAD-254 nm
Method: 10 mg taxifolin (Lavitol® 98.9% purity) was placed in a vial with 5 ml dist. water to make a saturated solution and shaken for 60 minutes. The solution was then transferred to a vial by means of a syringe with an HPLC filter (0.22 μm) and then measured (HPLC DAD-254 nm).
300 mg of the sample was placed in a vial with 5 ml dist. water to produce a saturated solution and shaken for 60 minutes. The solution was then transferred to a vial using a syringe with an HPLC filter (0.22 μm) and then measured undiluted (HPLC DAD-254 nm).

[4] = Saturation solubility in dist. water (HPLC), β-CD complexes; type: physicochemical; conditions: distilled water, thermodynamic from solid, saturated solution shaken 60 minutes, HPLC DAD-254 nm, read-out: Solubility of taxifolin
Method: Saturation Solubility in Dist. Water (HPLC)
The last most important point in terms of comparing the production methods to one another is solubility in distilled water. The solubility of the complex has a direct influence on bioavailability, because only dissolved complexes/active ingredients can pass the epithelial cells of the GI tract. Moreover, the samples were examined for rel. substances in order to identify possible degradation of the active ingredient during the production process.
10 mg taxifolin (Lavitol® 98.9% purity) was placed in a vial with 5 ml dist. water to make a saturated solution and shaken for 60 minutes. The solution was then transferred to a vial using a syringe with an HPLC filter (0.22 μm) and then measured undiluted (HPLC DAD-254 nm).
500 mg of the sample was placed in a vial with 6 ml dist. water to make a saturated solution and shaken for 60 minutes. The solution was then transferred to a vial using a syringe with an HPLC filter (0.22 μm), diluted 10:1 with distilled water to prevent oversaturation, and then measured (HPLC DAD-254 nm). The taxifolin concentration was calculated in mg/ml based on the peak area, taking into account the dilution.

[5] = Solubility of taxifolin in organic solvents; type: physicochemical
[6] = Solubility of the solid dispersion with Eudragit E in 0.1 N HCl (simulated gastric juices); type: physicochemical; conditions: simulated gastric fluid, thermodynamic from solid, saturated solution, room temperature, HPLC, read-out: Solubility of taxifolin
Method: The last most important point for comparing the production methods to one another is solubility in simulated gastric juices. That is, the solubility of the complex directly influences bioavailability, because only dissolved active ingredients can pass the epithelial cells of the GI tract
10 mg taxifolin (Lavitol® 98.9% purity) was placed in a vial with 5 ml 0.1 N HCl to make a saturated solution and shaken for 60 minutes. The solution was then transferred into a vial by means of a syringe with an HPLC filter (0.22 μm) and then measured.
Saturated solutions of the samples in 0.1 molar HCl solution were prepared at room temperature. The solution was then transferred to a vial by means of a syringe with an HPLC filter (0.22 μm), appropriately diluted and the taxifolin concentration of the solution was determined by HLPC.

[7] = test system: GABAA receptor α+/β− interface; conditions: cited from earlier work
[8] = test system: GABAA receptor β+/α− interface at the amino acid β-265ASN; conditions: cited from earlier work

`O=C1c2c(O)cc(O)cc2O[C@H](c2ccc(O)c(O)c2)[C@H]1O` [Taxifolin reference, (+)taxifolin] gave a Mean release ([1]; 5 min) of 29%, a Release ([1]; 5 min, vessel 1, 500 ml 0.1 N HCl) of 28.2% and a Release ([1]; 5 min, vessel 2, 500 ml 0.1 N HCl) of 29.2%. It also gave a Mean release ([1]; 10 min) of 46%, a Release ([1]; 10 min, vessel 1, 500 ml 0.1 N HCl) of 46.4% and a Release ([1]; 10 min, vessel 2, 500 ml 0.1 N HCl) of 44.8%. The Mean release ([1]; 15 min, listed as taxifolin) was 60%, the Mean release ([1]; 15 min, listed as taxifolin (reference)) was 60% and the Release ([1]; 15 min, vessel 1, 500 ml 0.1 N HCl) was 61.1%. For the same compound, the Release ([1]; 15 min, vessel 2, 500 ml 0.1 N HCl) was 58.7%, the Mean release ([1]; 20 min) was 69% and the Release ([1]; 20 min, vessel 1, 500 ml 0.1 N HCl) was 70.4%. For the same compound, the Release ([1]; 20 min, vessel 2, 500 ml 0.1 N HCl) was 67.5%, the Mean release ([1]; 30 min) was 79% and the Release ([1]; 30 min, vessel 1, 500 ml 0.1 N HCl) was 80.8%. It also gave a Release ([1]; 30 min, vessel 2, 500 ml 0.1 N HCl) of 77.4%, a Mean release ([1]; 60 min) of 92% and a Release ([1]; 60 min, vessel 1, 500 ml 0.1 N HCl) of 90.8%. For the same compound, the Release ([1]; 60 min, vessel 2, 500 ml 0.1 N HCl) was 93.1%, the NOAEL level [2] was 1500 mg/kg and the solubility at 60 min [3] was 750 µg/mL (≈ 2460 µM). The solubility at 60 min [4] was 750 µg/mL (≈ 2460 µM), the “Solubility in acetone and ethyl acetate” value [5] was “very soluble” and the “Solubility in diethyl ether” value [5] was “insoluble”. It also gave a solubility at 60 min [6] of 693 µg/mL (≈ 2280 µM).

In the case of `CCO` [ethanol], the “Concentration from which the high-affinity binding site is occupied” value [7] is listed as at least 3 mM and the “Concentration from which the low-affinity binding site is occupied” value [8] is listed as at least 50 mM.

— patent US20220008382A1, “ALCOHOL ANTIDOTE” (Evanium Healthcare GmbH, priority 2018, published 2022)
